Test results taken from PMC8319832, “Fine-Tuning of Alkaline Residues on the Hydrophilic Face Provides a Non-toxic Cationic α-Helical Antimicrobial Peptide Against Antibiotic-Resistant ESKAPE Pathogens” (Frontiers in Microbiology, 2021).
≈ marks a conversion by molar mass, not a printed value. Where a SMILES comes first, the peptide text is derived from it.

Tests used:
[1] = test system: E. faecium 898; assay: MIC, broth dilution; type: cell-based, Enterococcus faecium; conditions: CLSI broth dilution, MHB, 37°C, 20 h, OD630, at least three repeats; clinical isolate
Description: (§1) All experiments were repeated at least three times.

[2] = test system: P. aeruginosa 9042; assay: MIC, broth dilution; type: cell-based, Pseudomonas aeruginosa; conditions: CLSI broth dilution, MHB, 37°C, 20 h, OD630, at least three repeats; clinical isolate
Description: as §1

[3] = test system: P. aeruginosa 9014; assay: MIC, broth dilution; type: cell-based, Pseudomonas aeruginosa; conditions: CLSI broth dilution, MHB, 37°C, 20 h, OD630, at least three repeats; clinical isolate, CRE, MDR
Description: as §1

[4] = test system: K. pneumoniae ATCC 700603; assay: MIC, broth dilution; type: cell-based, Klebsiella pneumoniae; conditions: CLSI broth dilution, MHB, 37°C, 20 h, OD630, at least three repeats; standard strain
Procedure: as §1
(§2) To study the influence of physiological ions on the antimicrobial activities of the peptides, The MICs of the peptides were also determined against the standard bacterial strains cultured in MHB containing various salts at their physiological concentrations (150 mM NaCl, 4.5 mM KCl, 1 mM MgCl2, 2 mM CaCl2, 6 μM NH4HCO3, and 4 μM FeCl3) ([Ma et al., 2016]).

[5] = test system: S. aureus 9124; assay: MIC, broth dilution; type: cell-based, Staphylococcus aureus; conditions: CLSI broth dilution, MHB, 37°C, 20 h, OD630, at least three repeats; clinical isolate, MRSA
Description: as §1

[6] = test system: S. aureus 4188; assay: MIC, broth dilution; type: cell-based, Staphylococcus aureus; conditions: CLSI broth dilution, MHB, 37°C, 20 h, OD630, at least three repeats; clinical isolate, penicillin-resistant
Description: as §1

[7] = test system: S. aureus ATCC 25923; assay: MIC, broth dilution; type: cell-based, Staphylococcus aureus; conditions: CLSI broth dilution, MHB, 37°C, 20 h, OD630, at least three repeats; standard strain
Description: as §1

[8] = test system: S. aureus 1176; assay: MIC, broth dilution; type: cell-based, Staphylococcus aureus; conditions: CLSI broth dilution, MHB, 37°C, 20 h, OD630, at least three repeats; clinical isolate
Description: as §1

[9] = test system: A. baumannii 906; assay: MIC, broth dilution; type: cell-based, Acinetobacter baumannii; conditions: CLSI broth dilution, MHB, 37°C, 20 h, OD630, at least three repeats; clinical isolate, CRE, MDR
Description: as §1

[10] = test system: A. baumannii 13012; assay: MIC, broth dilution; type: cell-based, Acinetobacter baumannii; conditions: CLSI broth dilution, MHB, 37°C, 20 h, OD630, at least three repeats; clinical isolate, CRE, MDR
Description: as §1

[11] = test system: A. baumannii 13079; assay: MIC, broth dilution; type: cell-based, Acinetobacter baumannii; conditions: CLSI broth dilution, MHB, 37°C, 20 h, OD630, at least three repeats; clinical isolate, CRE, MDR
Description: as §1

[12] = test system: A. baumannii 9068; assay: MIC, broth dilution; type: cell-based, Acinetobacter baumannii; conditions: CLSI broth dilution, MHB, 37°C, 20 h, OD630, at least three repeats; clinical isolate, CRE, MDR
Description: as §1

[13] = test system: A. baumannii ATCC 19606; assay: MIC, broth dilution; type: cell-based, Acinetobacter baumannii; conditions: CLSI broth dilution, MHB, 37°C, 20 h, OD630, at least three repeats; standard strain
Procedure: as §1, §2

[14] = test system: E. faecalis ATCC 29212; assay: MIC, broth dilution; type: cell-based; conditions: CLSI broth dilution, MHB, 37°C, 20 h, OD630, at least three repeats; standard strain
Procedure: as §1, §2

[15] = test system: E. coli 2678; assay: MIC, broth dilution; type: cell-based, Escherichia coli; conditions: CLSI broth dilution, MHB, 37°C, 20 h, OD630, at least three repeats; clinical isolate, ESBL
Description: as §1

[16] = test system: E. coli ATCC35218; assay: MIC, broth dilution; type: cell-based, Escherichia coli; conditions: CLSI broth dilution, MHB, 37°C, 20 h, OD630, at least three repeats; standard strain
Description: as §1

[17] = test system: E. coli 2687; assay: MIC, broth dilution; type: cell-based, Escherichia coli; conditions: CLSI broth dilution, MHB, 37°C, 20 h, OD630, at least three repeats; clinical isolate, ESBL
Description: as §1

[18] = test system: ESBL-producing E. coli, CRE- and MDR P. aeruginosa, CRE- and MDR A. baumannii; assay: MIC, summary over resistant gram-negative strains; type: cell-based; conditions: summary of Table 4
Description: as §1

[19] = test system: E. coli ATCC25922; assay: MIC, broth dilution; type: cell-based, Escherichia coli; conditions: CLSI broth dilution, MHB, 6.25 × 10^5 cfu per ml, 37°C, 20 h, OD630, at least three repeats
[20] = test system: P. aeruginosa ATCC 27853; assay: MIC, broth dilution; type: cell-based, Pseudomonas aeruginosa; conditions: CLSI broth dilution, MHB, 37°C, 20 h, OD630, at least three repeats; standard strain
Procedure: as §1, §2

[21] = test system: K. pneumoniae 9126; assay: MIC, broth dilution; type: cell-based, Klebsiella pneumoniae; conditions: CLSI broth dilution, MHB, 37°C, 20 h, OD630, at least three repeats; clinical isolate, CRE
Description: as §1

[22] = test system: human red blood cells (hRBCs); assay: Hemolytic activity determination; type: cell-based; conditions: hRBCs in 0.9% sodium chloride, 37°C, 1 h, OD540, 1% Triton X-100 = 100%, three independent experiments
Procedure: Fresh human red blood cells (hRBCs) were collected in a sterile borosilicate glass tube covered with sodium citrate as the anticoagulating agent. […] Two-fold dilutions of the peptides were prepared in 0.9% sodium chloride to 100 μl and mixed with equal volumn of hRBC suspension to final peptide concentrations ranging from 12.5 to 200 μg ml^–1. After co-incubation at 37°C for 1 h, the samples were centrifuged (2,000 × g, 4°C, 20 min), and the supernatant (100 μl) was taken for optical density (OD540) measurements (Asample). The hRBCs assayed with 0.9% sodium chloride (Ablank) or 1% Triton X-100 (Apositive) were applied as 0% and 100% hemolysis, respectively. Three independent experiments were performed and the percent hemolysis was calculated according to the following equation ([Yin et al., 2012]; [Li et al., 2016]):
Hemolysis(%)=100*(Asample-Ablank)/(Apositive-Ablank)

[23] = test system: E. faecalis 901; assay: MIC, broth dilution; type: cell-based; conditions: CLSI broth dilution, MHB, 37°C, 20 h, OD630, at least three repeats; clinical isolate
Description: as §1

[24] = test system: S. epidermidis 6943; assay: MIC, broth dilution; type: cell-based; conditions: CLSI broth dilution, MHB, 37°C, 20 h, OD630, at least three repeats; clinical isolate, MRSE
Description: as §1

[25] = test system: S. epidermidis 9092; assay: MIC, broth dilution; type: cell-based; conditions: CLSI broth dilution, MHB, 37°C, 20 h, OD630, at least three repeats; clinical isolate, MRSE
Description: as §1

[26] = test system: S. epidermidis 888; assay: MIC, broth dilution; type: cell-based; conditions: CLSI broth dilution, MHB, 37°C, 20 h, OD630, at least three repeats; clinical isolate
Description: as §1

[27] = test system: S. aureus ATCC29213; assay: MIC, broth dilution; type: cell-based, Staphylococcus aureus; conditions: CLSI broth dilution, MHB, 6.25 × 10^5 cfu per ml, 37°C, 20 h, OD630, at least three repeats
Procedure: as §1, §2

[28] = test system: A. baumannii; conditions: summary of Table 4
Procedure: The MIC determination was performed using the broth dilution method according to the guidelines of the Clinical and Laboratory Standards Institute (CLSI) ([Cao et al., 2012]; [Mourtada et al., 2019]). Briefly, the bacterial cells were incubated in Mueller-Hinton broth (MHB, Oxoid) at 37°C and 150 rpm, after overnight incubation, the bacteria were transferred to new broth until the exponential phase of growth (OD630 = 0.4). After that, the bacteria were diluted with fresh MHB to 160 μl and prepared in a sterile 96-well polypropylene plate to achieve a final concentration of 6.25 × 10^5 colony forming units (cfu) per ml. Two-fold dilutions of the peptides in 0.9% sodium chloride (40 μl) were added to each well to achieve the final peptide concentrations ranging from 1.25 to 80 μg ml^–1. […] All experiments were repeated at least three times.

Structure (SMILES) | MIC [1] | MIC [2] | MIC [3] | MIC [4] | MIC [5] | MIC [6] | MIC [7] | MIC [8] | MIC [9] | MIC [10] | MIC [11] | MIC [12] | MIC [13] | MIC [14] | MIC [15] | MIC [16] | MIC [17] | MIC [19] | MIC [20] | MIC [21] | further results
CC[C@H](C)[C@H](NC(=O)[C@H](CCCNC(=N)N)NC(=O)[C@H](CCCNC(=N)N)NC(=O)[C@@H](NC(=O)[C@@H](N)Cc1ccccc1)[C@@H](C)CC)C(=O)N[C@@H](C)C(=O)N[C@@H](CCCNC(=N)N)C(=O)N[C@@H](CC(C)C)C(=O)N[C@@H](CC(C)C)C(=O)N[C@@H](CCCNC(=N)N)C(=O)N[C@@H](CCCNC(=N)N)C(=O)N[C@H](C(=O)N[C@@H](Cc1ccccc1)C(N)=O)[C@@H](C)CC [BmKn2-7R] (H-FIRRIARLLRRIF-NH2) | 2.5 µg/mL (≈ 1.45 µM) | 5 µg/mL (≈ 2.89 µM) | 2.5 µg/mL (≈ 1.45 µM) | 5 µg/mL (≈ 2.89 µM) | 5 µg/mL (≈ 2.89 µM) | 5 µg/mL (≈ 2.89 µM) | 5 µg/mL (≈ 2.89 µM) | 5 µg/mL (≈ 2.89 µM) | 2.5 µg/mL (≈ 1.45 µM) | 2.5 µg/mL (≈ 1.45 µM) | 2.5 µg/mL (≈ 1.45 µM) | 5 µg/mL (≈ 2.89 µM) | 2.5 µg/mL (≈ 1.45 µM) | 10 µg/mL (≈ 5.78 µM) | 10 µg/mL (≈ 5.78 µM) | 10 µg/mL (≈ 5.78 µM) | 10 µg/mL (≈ 5.78 µM) | 10 µg/mL (≈ 5.78 µM) | 5 µg/mL (≈ 2.89 µM) | 5 µg/mL (≈ 2.89 µM) | MIC against ESBL E. coli, CRE/MDR P. aeruginosa, CRE/MDR A. baumannii [18]: 2.5–10 μg ml^–1; percent hRBC hemolysis ([22]; peptide 100 μg ml^–1): 73.1%; MIC [23]: 5 µg/mL (≈ 2.89 µM); MIC [24]: 5 µg/mL (≈ 2.89 µM); MIC [25]: 5 µg/mL (≈ 2.89 µM); MIC [26]: 2.5 µg/mL (≈ 1.45 µM); MIC [27]: 5 µg/mL (≈ 2.89 µM)
CC[C@H](C)[C@H](NC(=O)[C@H](CCCNC(=N)N)NC(=O)[C@H](CCCCN)NC(=O)[C@@H](NC(=O)[C@@H](N)Cc1ccccc1)[C@@H](C)CC)C(=O)N[C@@H](C)C(=O)N[C@@H](CCCNC(=N)N)C(=O)N[C@@H](CC(C)C)C(=O)N[C@@H](CC(C)C)C(=O)N[C@@H](CCCNC(=N)N)C(=O)N[C@@H](CCCCN)C(=O)N[C@H](C(=O)N[C@@H](Cc1ccccc1)C(N)=O)[C@@H](C)CC [BmKn2-7] (H-FIKRIARLLRKIF-NH2) | 5 µg/mL (≈ 2.99 µM) | 20 µg/mL (≈ 12 µM) | 10 µg/mL (≈ 5.98 µM) | 10 µg/mL (≈ 5.98 µM) | 5 µg/mL (≈ 2.99 µM) | 5 µg/mL (≈ 2.99 µM) | 5 µg/mL (≈ 2.99 µM) | 5 µg/mL (≈ 2.99 µM) | 5 µg/mL (≈ 2.99 µM) | 5 µg/mL (≈ 2.99 µM) | 2.5 µg/mL (≈ 1.49 µM) | 5 µg/mL (≈ 2.99 µM) | 5 µg/mL (≈ 2.99 µM) | 5 µg/mL (≈ 2.99 µM) | 20 µg/mL (≈ 12 µM) | 10 µg/mL (≈ 5.98 µM) | 10 µg/mL (≈ 5.98 µM) | 10 µg/mL (≈ 5.98 µM) | 10 µg/mL (≈ 5.98 µM) | 10 µg/mL (≈ 5.98 µM) | percent hRBC hemolysis ([22]; peptide 25 μg ml^–1): 6.9%; percent hRBC hemolysis ([22]; peptide 100 μg ml^–1): 41.0%; MIC [23]: 5 µg/mL (≈ 2.99 µM); MIC [24]: 5 µg/mL (≈ 2.99 µM); MIC [25]: 5 µg/mL (≈ 2.99 µM); MIC [26]: 5 µg/mL (≈ 2.99 µM); MIC [27]: 5 µg/mL (≈ 2.99 µM)
CC[C@H](C)[C@H](NC(=O)[C@H](C)NC(=O)CNC(=O)[C@@H](NC(=O)[C@@H](N)Cc1ccccc1)[C@@H](C)CC)C(=O)N[C@@H](C)C(=O)N[C@@H](CCCNC(=N)N)C(=O)N[C@@H](CC(C)C)C(=O)N[C@@H](CC(C)C)C(=O)N[C@@H](CO)C(=O)N[C@@H](CCCCN)C(=O)N[C@H](C(=O)N[C@@H](Cc1ccccc1)C(N)=O)[C@@H](C)CC [BmKn2] (H-FIGAIARLLSKIF-NH2) | 10 µg/mL (≈ 6.91 µM) | >80 µg/mL | >80 µg/mL | >80 µg/mL | 2.5 µg/mL (≈ 1.73 µM) | 5 µg/mL (≈ 3.45 µM) | 5 µg/mL (≈ 3.45 µM) | 2.5 µg/mL (≈ 1.73 µM) | 10 µg/mL (≈ 6.91 µM) | 10 µg/mL (≈ 6.91 µM) | 10 µg/mL (≈ 6.91 µM) | 10 µg/mL (≈ 6.91 µM) | 10 µg/mL (≈ 6.91 µM) | 10 µg/mL (≈ 6.91 µM) | >80 µg/mL | >80 µg/mL | >80 µg/mL | > 80 µg/mL | >80 µg/mL | >80 µg/mL | MIC against A. baumannii [28]: 5–10 μg ml^–1; percent hRBC hemolysis ([22]; peptide 25 μg ml^–1): 91.8%; MIC [23]: 10 µg/mL (≈ 6.91 µM); MIC [24]: 5 µg/mL (≈ 3.45 µM); MIC [25]: 5 µg/mL (≈ 3.45 µM); MIC [26]: 5 µg/mL (≈ 3.45 µM); MIC [27]: 10 µg/mL (≈ 6.91 µM)
